Results reported in US11584747B2, “Substituted pyridopyrimidinonyl compounds useful as T cell activators” (BRISTOL-MYERS SQUIBB COMPANY, priority 2019, dated 2023).
Where two headings read alike, the source gives them in different places.

Tests used:
human DGKζ = human DGKζ (Homo sapiens (Human), UniProt Q13574); experiment: DGKζ LIPGLO assay (extruded liposome substrate, ADP-Glo luminescence); format: biochemical
[1] = test system: human venous whole blood (IFN-γ); experiment: Human whole blood IFN-γ assay; format: cell-based
Experimental: Human venous whole blood (22.5 μL per well), obtained from healthy donors, was pre-treated with compounds for one hour at 37° C. in a humidified 95% air/5% CO2 incubator. The blood was stimulated with 2.5 μL anti-human CD3 and anti-CD28 mAb at a final concentration of 1 μg/mL each for 24 hours at 37° C. IFN-γ in the supernatants was measured using AlphLISA kit (Cat #AL217).

human DGKα = human DGKα (Homo sapiens (Human), UniProt P23743); experiment: DGKα ADPGLO assay (detergent/lipid micelle substrate); format: biochemical
Sequence of human DGKα (P23743 whole entry, looked up, the tested form may be a part): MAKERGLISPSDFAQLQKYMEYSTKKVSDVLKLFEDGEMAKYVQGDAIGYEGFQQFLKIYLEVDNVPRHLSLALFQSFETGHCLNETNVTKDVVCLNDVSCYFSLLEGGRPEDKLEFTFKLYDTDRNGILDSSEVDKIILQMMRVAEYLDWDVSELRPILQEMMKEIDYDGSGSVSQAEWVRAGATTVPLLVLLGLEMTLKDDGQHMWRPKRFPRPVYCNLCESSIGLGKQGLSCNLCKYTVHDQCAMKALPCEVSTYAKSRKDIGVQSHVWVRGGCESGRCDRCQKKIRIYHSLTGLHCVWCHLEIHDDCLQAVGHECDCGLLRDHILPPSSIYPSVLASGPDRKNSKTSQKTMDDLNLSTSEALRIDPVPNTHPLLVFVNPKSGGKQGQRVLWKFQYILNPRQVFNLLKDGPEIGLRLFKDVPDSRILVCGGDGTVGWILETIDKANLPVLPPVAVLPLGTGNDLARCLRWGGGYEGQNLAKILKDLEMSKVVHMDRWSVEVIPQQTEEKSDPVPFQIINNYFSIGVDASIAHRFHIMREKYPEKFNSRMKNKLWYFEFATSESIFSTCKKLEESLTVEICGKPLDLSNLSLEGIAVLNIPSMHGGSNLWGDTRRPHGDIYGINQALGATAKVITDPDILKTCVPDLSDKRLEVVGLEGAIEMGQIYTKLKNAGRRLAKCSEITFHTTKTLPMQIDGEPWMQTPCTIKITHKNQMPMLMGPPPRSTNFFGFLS
Experimental: DGK Alpha ADPGLO (Truncated) IC50 (uM)
The detergent/lipid micelle was prepared by combining 15 g phosphatidylserine (Avanti 840035P) and 1 g diacylglycerol (8008110) and dissolving into 150 mL chloroform in a 2 L round bottom flask. Chloroform was removed under high vacuum by rotary evaporation. […] The lipid/detergent solution was split into 5 mL aliquots and stored at −80° C.

[2] = liposome assay, read-out: DGK zeta LIPGLO IC50
[3] = whole blood, normalized to 3 μM reference compound as 100% activation, read-out: IFN-γ Whole Blood Normalized EC50
[4] = truncated DGK alpha, read-out: DGK alpha ADPGLO (Truncated) IC50
[5] = liposome (LIPGLO) assay, read-out: DGK zeta (liposome assay) IC50
[6] = ADPGLO assay, read-out: DGK alpha ADPGLO IC50

Sequence of human DGKζ (Q13574 other isoform, or with tags, fused parts or gaps): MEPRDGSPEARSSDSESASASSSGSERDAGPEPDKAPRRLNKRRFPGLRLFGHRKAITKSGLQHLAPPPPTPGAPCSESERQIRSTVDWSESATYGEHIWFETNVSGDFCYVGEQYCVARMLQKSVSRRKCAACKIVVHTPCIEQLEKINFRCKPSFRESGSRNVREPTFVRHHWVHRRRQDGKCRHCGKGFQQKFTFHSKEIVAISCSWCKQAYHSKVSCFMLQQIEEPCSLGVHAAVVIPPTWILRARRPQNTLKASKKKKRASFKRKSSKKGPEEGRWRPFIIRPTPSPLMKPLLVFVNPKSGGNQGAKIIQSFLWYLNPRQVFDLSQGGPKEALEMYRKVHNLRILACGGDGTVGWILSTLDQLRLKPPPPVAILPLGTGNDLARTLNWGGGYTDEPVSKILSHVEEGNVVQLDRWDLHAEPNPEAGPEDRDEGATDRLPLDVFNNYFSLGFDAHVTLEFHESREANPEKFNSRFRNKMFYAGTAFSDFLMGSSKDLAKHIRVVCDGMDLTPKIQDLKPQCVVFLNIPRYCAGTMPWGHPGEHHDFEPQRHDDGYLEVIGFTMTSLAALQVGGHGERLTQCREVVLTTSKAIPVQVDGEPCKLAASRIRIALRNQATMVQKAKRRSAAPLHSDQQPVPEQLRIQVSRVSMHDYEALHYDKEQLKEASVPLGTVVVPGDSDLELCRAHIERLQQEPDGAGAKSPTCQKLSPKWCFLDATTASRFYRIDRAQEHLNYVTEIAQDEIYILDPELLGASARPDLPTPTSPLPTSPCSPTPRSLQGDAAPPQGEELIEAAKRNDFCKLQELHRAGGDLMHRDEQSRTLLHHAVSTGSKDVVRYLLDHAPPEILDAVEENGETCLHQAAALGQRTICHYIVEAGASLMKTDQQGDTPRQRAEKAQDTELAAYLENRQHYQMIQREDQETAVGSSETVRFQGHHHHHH

Row | IC50 (human DGKζ; [2]) [nM] | IC50 (human DGKα; [4]) [nM] | IC50 (human DGKζ; [5]) [nM] | EC50 ([1]; Homo sapiens, 24 h, human whole blood, anti-CD3 plus anti-CD28 stimulation, 24 hours, read-out: IFN-γ Whole Blood EC50) [nM] | IC50 (human DGKα; [6]) [nM] | EC50 ([1]; human whole blood, anti-CD3 plus anti-CD28 stimulation, 24 hours, read-out: IFN-γ Whole Blood EC50) [nM] | Structure (SMILES) | EC50 [1, 3] [nM] | EC50 ([1]; Homo sapiens, whole blood, normalized to 3 μM reference compound as 100% activation, read-out: IFN-γ Whole Blood Normalized EC50) [nM]
1 | 25100 | 3170 |  |  |  |  | CC[C@H]1CN(C(C)c2ccc(CN3CCN(C(C)=O)CC3)cc2)[C@H](CC)CN1c1nc(=O)n(C)c2ccc(C#N)nc12 (stereo partly drawn) [Example 284, 4-((2S,5R)-4-(1-(4-((4-acetylpiperazin-1-yl)methyl)phenyl)ethyl)-2,5-diethylpiperazin-1-yl)-1-methyl-2-oxo-1,2-dihydropyrido[3,2-d]pyrimidine-6-carbonitrile] | 13000 | 
2 | 950 | 59 |  |  |  |  | CCC(c1ccc(OC)cc1)N1C[C@H](CC)N(c2nc(=O)n(C)c3ccc(C#N)nc23)C[C@H]1CC (stereo partly drawn) [Example 213, 4-((2S,5R)-2,5-diethyl-4-(1-(4-methoxyphenyl)propyl)piperazin-1-yl)-1-methyl-2-oxo-1,2-dihydropyrido[3,2-d]pyrimidine-6-carbonitrile] | 190 | 
3 |  |  | 125000 | 20000 | 125000 |  | CC[C@H]1CN(C(C)c2ccc(C(F)(F)F)cc2)[C@H](CC)CN1c1nc(=O)n(C)c2ccc(OCCOC)nc12 (stereo partly drawn) [Example 433, 4-((2S,5R)-2,5-diethyl-4-(1-(4-(trifluoromethyl)phenyl)ethyl)piperazin-1-yl)-6-(2-methoxyethoxy)-1-methylpyrido[3,2-d]pyrimidin-2(1H)-one] |  | 
4 | 140 | 81 |  |  |  |  | CCC(c1ccc(C(F)(F)F)nc1)N1C[C@H](CC)N(c2nc(=O)n(C)c3ccc(C#N)nc23)C[C@H]1CC (stereo partly drawn) [Example 224, 4-((2S,5R)-2,5-diethyl-4-(1-(6-(trifluoromethyl)pyridin-3-yl)propyl)piperazin-1-yl)-1-methyl-2-oxo-1,2-dihydropyrido[3,2-d]pyrimidine-6-carbonitrile] | 120 | 
5 | 88 | 87 |  |  |  |  | CCC(c1ccc(OCC2CC2)cc1)N1C[C@H](CC)N(c2nc(=O)n(C)c3ccc(C#N)nc23)C[C@H]1CC (stereo partly drawn) [Example 216, 4-((2S,5R)-4-(1-(4-(cyclopropylmethoxy)phenyl)propyl)-2,5-diethylpiperazin-1-yl)-1-methyl-2-oxo-1,2-dihydropyrido[3,2-d]pyrimidine-6-carbonitrile] | 12 | 
6 | 17000 | 850 |  |  |  |  | CC[C@H]1CN(C(C)c2ccc(OC(C)(C)COC)cc2)[C@H](CC)CN1c1nc(=O)n(C)c2ccc(C#N)nc12 (stereo partly drawn) [Example 189] | 450 | 
7 | 2710 | 780 |  |  |  |  | CC[C@H]1CN(C(C)c2ccc3oc(=O)n(C)c3c2)[C@H](CC)CN1c1nc(=O)n(C)c2ccc(C#N)nc12 (stereo partly drawn) [Example 203, 4-((2S,5R)-2,5-diethyl-4-(1-(3-methyl-2-oxo-2,3-dihydrobenzo[d]oxazol-5-yl)ethyl)piperazin-1-yl)-1-methyl-2-oxo-1,2-dihydropyrido[3,2-d]pyrimidine-6-carbonitrile] | 2210 | 
8 | 420 | 360 |  |  |  |  | CC[C@H]1CN(C(C)c2ccc3oc(=O)n(C)c3c2)[C@H](CC)CN1c1nc(=O)n(C)c2ccc(C#N)nc12 (stereo partly drawn) [Example 202, 4-((2S,5R)-2,5-diethyl-4-(1-(3-methyl-2-oxo-2,3-dihydrobenzo[d]oxazol-5-yl)ethyl)piperazin-1-yl)-1-methyl-2-oxo-1,2-dihydropyrido[3,2-d]pyrimidine-6-carbonitrile] | 160 | 
9 | 1030 | 91 |  |  |  |  | [2H]C([2H])([2H])Oc1ccc(C(CC)N2C[C@H](CC)N(c3nc(=O)n(C)c4ccc(C#N)nc34)C[C@H]2CC)cc1 (single isomer, unassigned) [Example 209] | 1280 | 
10 |  |  | 590 |  | 61 | 3090 | CC[C@H]1CN(C(C)c2nc(C3CC3)no2)[C@H](CC)CN1c1nc(=O)n(C)c2ccc(C#N)nc12 (stereo partly drawn) [Example 362, 4-((2S,5R)-4-(1-(3-cyclopropyl-1,2,4-oxadiazol-5-yl)ethyl)-2,5-diethylpiperazin-1-yl)-1-methyl-2-oxo-1,2-dihydropyrido[3,2-d]pyrimidine-6-carbonitrile] |  | 
11 | 1790 | 2450 |  |  |  |  | CC[C@H]1CN(C(C)c2cnc(C(F)(F)F)nc2)[C@H](CC)CN1c1nc(=O)n(C)c2ccc(C#N)nc12 (stereo partly drawn) [Example 227, 4-((2S,5R)-2,5-diethyl-4-(1-(2-(trifluoromethyl)pyrimidin-5-yl)ethyl)piperazin-1-yl)-1-methyl-2-oxo-1,2-dihydropyrido[3,2-d]pyrimidine-6-carbonitrile] | 640 | 
12 | 38 | 37 |  |  |  |  | CCC(c1ccc(OCC2CC2)cc1F)N1C[C@H](CC)N(c2nc(=O)n(C)c3ccc(C#N)nc23)C[C@H]1CC (stereo partly drawn) [Example 198, 4-((2S,5R)-4-(1-(4-(cyclopropylmethoxy)-2-fluorophenyl)propyl)-2,5-diethylpiperazin-1-yl)-1-methyl-2-oxo-1,2-dihydropyrido[3,2-d]pyrimidine-6-carbonitrile] | 15 | 
13 | 150 | 530 |  |  |  |  | CC[C@H]1CN(C(C)c2ccc(CN3CCOC(C)(C)C3)cc2)[C@H](CC)CN1c1nc(=O)n(C)c2ccc(C#N)nc12 (stereo partly drawn) [Example 275, 4-((2S,5R)-4-(1-(4-((2,2-dimethylmorpholino)methyl)phenyl)ethyl)-2,5-diethylpiperazin-1-yl)-1-methyl-2-oxo-1,2-dihydropyrido[3,2-d]pyrimidine-6-carbonitrile] | 35 | 
14 | 3740 | 61 |  |  |  |  | CC[C@@H]1CN(c2nc(=O)n(C)c3ccc(C#N)nc23)[C@@H](CC)CN1Cc1ccc(C(F)(F)F)cc1 [Example 205, 4-((2S,5R)-2,5-diethyl-4-(4-(trifluoromethyl)benzyl)piperazin-1-yl)-1-methyl-2-oxo-1,2-dihydropyrido[3,2-d] pyrimidine-6-carbonitrile] |  | 830
15 | 110 | 110 |  |  |  |  | CC[C@@H]1CN(c2nc(=O)n(C)c3ccc(C#N)nc23)[C@@H](C)CN1C(c1ccc(F)cc1)c1csc(C(F)(F)F)n1 (stereo partly drawn) [Example 297, 4-((2S,5R)-5-ethyl-4-((4-fluorophenyl)(2-(trifluoromethyl)thiazol-4-yl)methyl)-2-methylpiperazin-1-yl)-1-methyl-2-oxo-1,2-dihydropyrido[3,2-d]pyrimidine-6-carbonitrile] | 53 | 
16 | 4060 | 340 |  |  |  |  | CCC(c1ccc(CN2CCOCC2)cc1)N1C[C@H](CC)N(c2nc(=O)n(C)c3ccc(C#N)nc23)C[C@H]1CC (stereo partly drawn) [Example 268, 4-((2S,5R)-2,5-diethyl-4-(1-(4-(morpholinomethyl)phenyl)propyl)piperazin-1-yl)-1-methyl-2-oxo-1,2-dihydropyrido[3,2-d]pyrimidine-6-carbonitrile] | 1000 | 
17 | 28 | 83 |  |  |  |  | CC[C@H]1CN(C(C)c2ccc(C(=O)OC)cc2)[C@H](CC)CN1c1nc(=O)n(C)c2ccc(C#N)nc12 (stereo partly drawn) [Example 266, methyl 4-(1-((2R,5S)-4-(6-cyano-1-methyl-2-oxo-1,2-dihydropyrido[3,2-d]pyrimidin-4-yl)-2,5-diethylpiperazin-1-yl)ethyl)benzoate] | 180 | 
18 | 7330 | 1000 |  |  |  |  | CC[C@H]1CN(C(C)c2ccc(CN3CCC(OC)CC3)cc2)[C@H](CC)CN1c1nc(=O)n(C)c2ccc(C#N)nc12 (single isomer, unassigned) [Example 273] | 420 | 
19 | 12700 | 10 |  |  |  |  | CC[C@H]1CN(C(C)c2ccc(CO)cc2)[C@H](CC)CN1c1nc(=O)n(C)c2ccc(C#N)nc12 (stereo partly drawn) [Example 271, 4-((2S,5R)-2,5-Diethyl-4-(1-(4-(hydroxymethyl)phenyl)ethyl)piperazin-1-yl)-1-methyl-2-oxo-1,2-dihydropyrido[3,2-d]pyrimidine-6-carbonitrile] | 14400 | 
20 | 4680 | 1280 |  |  |  |  | CC[C@@H]1CN(c2nc(=O)n(C)c3ccc(C#N)nc23)[C@@H](C)CN1C(C)c1ccc2oc(=O)n(C)c2c1 (stereo partly drawn) [Example 299, 4-((2S,5R)-5-ethyl-2-methyl-4-(1-(3-methyl-2-oxo-2,3-dihydrobenzo[d]oxazol-5-yl)ethyl)piperazin-1-yl)-1-methyl-2-oxo-1,2-dihydropyrido[3,2-d]pyrimidine-6-carbonitrile] | 3460 | 
21 | 110 | 15 |  |  |  |  | CCC(c1ccc(Cl)cc1F)N1C[C@H](CC)N(c2nc(=O)n(C)c3ccc(C#N)nc23)C[C@H]1CC (stereo partly drawn) [Example 238, 4-((2S,5R)-4-(1-(4-chloro-2-fluorophenyl)propyl)-2,5-diethylpiperazin-1-yl)-1-methyl-2-oxo-1,2-dihydropyrido[3,2-d]pyrimidine-6-carbonitrile] | 23 | 
22 | 4260 | 1660 |  |  |  |  | CCC(c1ccc(OCC2CC2)cc1)N1C[C@H](CC)N(c2nc(=O)n(C)c3ccc(C#N)nc23)C[C@H]1CC (stereo partly drawn) [Example 217, 4-((2S,5R)-4-(1-(4-(cyclopropylmethoxy)phenyl)propyl)-2,5-diethylpiperazin-1-yl)-1-methyl-2-oxo-1,2-dihydropyrido[3,2-d]pyrimidine-6-carbonitrile] | 870 | 
